{"source": "patent US12338249B2", "about": "“Crystalline forms of N-(4-(1-(2,6-difluorobenzyl)-5-((dimethylamino)methyl)-3-(6-methoxy-3-pyridazinyl)-2,4-dioxo-1,2,3,4-tetrahydrothieno[2,3-d]pyrimidin-6-yl)phenyl)-N′-methoxyurea” (Sumitomo Pharma Switzerland GmbH, priority 2019, dated 2025)", "assay": "Thermodynamic aqueous solubility of crystalline Forms I and II of Compound 1 (HPLC)", "assay_type": "physicochemical", "protocol": "Substance contents in test solutions were measured using HPLC Prominence/PDA detector (Shimadzu Corporation). The analytical conditions and calculation formula were as follows: […]\nThe thermodynamic solubility of Forms I and II was determined at pH 1.2 and pH 6.8 and in 20 mM GCDC, pH 6.8 at 37° C. with an equilibrium period for 2, 6 and 24 hours.", "key": {"[1]": {"settings": "20 mM GCDC (sodium glycochenodeoxycholate), pH 6.8, 37° C., 2 hrs equilibrium, average n=3"}, "[2]": {"settings": "20 mM GCDC (sodium glycochenodeoxycholate), pH 6.8, 37° C., 6 hrs equilibrium, average n=3"}, "[3]": {"settings": "20 mM GCDC (sodium glycochenodeoxycholate), pH 6.8, 37° C., 24 hrs equilibrium, average n=3"}, "[4]": {"settings": "pH 6.8, 37° C., 2 hrs equilibrium, average n=3"}, "[5]": {"settings": "pH 6.8, 37° C., 6 hrs equilibrium, average n=3"}, "[6]": {"settings": "pH 6.8, 37° C., 24 hrs equilibrium, average n=3"}}}
{"smiles": "CONC(=O)Nc1ccc(-c2sc3c(c2CN(C)C)c(=O)n(-c2ccc(OC)nn2)c(=O)n3Cc2c(F)cccc2F)cc1", "note": "[Form II, N-(4-(1-(2,6-difluorobenzyl)-5-((dimethylamino)methyl)-3-(6-methoxy-3-pyridazinyl)-2,4-dioxo-1,2,3,4-tetrahydrothieno[2,3-d]pyrimidin-6-yl)phenyl)-N′-methoxyurea]", "values": [{"measurement": "Aqueous Solubility", "setting": "[1]", "result": 2750, "unit": "µg/mL"}, {"measurement": "Aqueous Solubility", "setting": "[2]", "result": 3300, "unit": "µg/mL"}, {"measurement": "Aqueous Solubility", "setting": "[3]", "result": 4120, "unit": "µg/mL"}, {"measurement": "Aqueous solubility compared between Form II and Form I (in words)", "setting": "37° C., overall comparison of Tables 3 and 4", "result": "more soluble than Form I of Compound 1"}, {"measurement": "solubility at 2 h", "setting": "aqueous solution, pH 1.2, 37 °C, pH 1.2, simulated gastric fluid, thermodynamic from solid, 2 hrs equilibrium, average n=3", "result": "> 10000", "unit": "µg/mL"}, {"measurement": "solubility at 6 h", "setting": "aqueous solution, pH 1.2, 37 °C, pH 1.2, simulated gastric fluid, thermodynamic from solid, 6 hrs equilibrium, average n=3", "result": "> 10000", "unit": "µg/mL"}, {"measurement": "solubility at 24 h", "setting": "aqueous solution, pH 1.2, 37 °C, pH 1.2, simulated gastric fluid, thermodynamic from solid, 24 hrs equilibrium, average n=3", "result": "> 10000", "unit": "µg/mL"}, {"measurement": "Aqueous Solubility", "setting": "[4]", "result": 520, "unit": "µg/mL"}, {"measurement": "Aqueous Solubility", "setting": "[5]", "result": 510, "unit": "µg/mL"}, {"measurement": "Aqueous Solubility", "setting": "[6]", "result": 520, "unit": "µg/mL"}, {"measurement": "Solubility compared between Form I and Form II (in words)", "setting": "pH 6.8, 37° C., listed as Form II of Compound 1", "result": "higher aqueous solubility"}]}
{"smiles": "CONC(=O)Nc1ccc(-c2sc3c(c2CN(C)C)c(=O)n(-c2ccc(OC)nn2)c(=O)n3Cc2c(F)cccc2F)cc1", "note": "[Form I, N-(4-(1-(2,6-difluorobenzyl)-5-((dimethylamino)methyl)-3-(6-methoxy-3-pyridazinyl)-2,4-dioxo-1,2,3,4-tetrahydrothieno[2,3-d]pyrimidin-6-yl)phenyl)-N′-methoxyurea]", "values": [{"measurement": "Aqueous Solubility", "setting": "[1]", "result": 960, "unit": "µg/mL"}, {"measurement": "Aqueous Solubility", "setting": "[2]", "result": 980, "unit": "µg/mL"}, {"measurement": "Aqueous Solubility", "setting": "[3]", "result": 970, "unit": "µg/mL"}, {"measurement": "Solubility compared between Form I and Form II (in words)", "setting": "20 mM GCDC, pH 6.8, 37° C.", "result": "lower solubility than Form II"}, {"measurement": "Aqueous Solubility", "setting": "pH 1.2, 37° C., 2 hrs equilibrium, average n=3", "result": ">10000", "unit": "µg/mL"}, {"measurement": "Aqueous Solubility", "setting": "pH 1.2, 37° C., 6 hrs equilibrium, average n=3", "result": ">10000", "unit": "µg/mL"}, {"measurement": "Aqueous Solubility", "setting": "pH 1.2, 37° C., 24 hrs equilibrium, average n=3", "result": ">10000", "unit": "µg/mL"}, {"measurement": "Solubility compared between Form I and Form II (in words)", "setting": "pH 6.8, 37° C.", "result": "lower solubility than Form II"}, {"measurement": "Aqueous Solubility", "setting": "[4]", "result": 80, "unit": "µg/mL"}, {"measurement": "Aqueous Solubility", "setting": "[5]", "result": 80, "unit": "µg/mL"}, {"measurement": "Aqueous Solubility", "setting": "[6]", "result": 70, "unit": "µg/mL"}]}
